The target of one series is Human JNK1α1 (Homo sapiens, UniProt P45983). Put plainly: JNK assay in vitro, phosphorylation of GST-ATF2 (19-96) with [γ-33P] ATP. Type of series: biochemical. To be noted: Human JNK1α1, 2 nM enzyme, 1 μM ATF2, 6 μM ATP (Km); read-out: JNK1 - IC50. The protocol: (§1) JNK activity was measured by phosphorylation of GST-ATF2 (19-96) with [γ-^33P] ATP. The enzyme reaction was conducted at Km concentrations of ATP and the substrate at final volume of 40 μl in buffer containing 25 mM HEPES, pH 7.5, 2 mM dithiothreitol, 150 mM NaCl, 20 mM MgCl2, 0.001% Tween® 20, 0.1% BSA and 10% DMSO. Human JNK2α2 assay contains 1 nM enzyme, 1 μM ATF2, 8 μM ATP with 1 uCi [γ-^33P] ATP. Human JNK1α1 assay contains 2 nM enzyme, 1 μM ATF2, 6 μM ATP with 1 μCi [γ-^33P] ATP. Human JNK3 (Upstate Biotech #14-501M) assay contains 2 nM enzyme, 1 μM ATF2, 4 μM ATP with 1 μCi [γ-^33P] ATP. The enzyme assay was carried out in the presence or absence of several compound concentrations. JNK and compound were pre-incubated for 10 min., followed by initiation of the enzymatic reaction by adding ATP and the substrate. The reaction mixture was incubated at 30° C. for 30 min. At the end of incubation, the reaction was terminated by transferring 25 μl of the reaction mixture to 150 μl of 10% glutathione Sepharose® slurry (Amersham #27-4574-01) containing 135 mM EDTA. The reaction product was captured on the affinity resin, and washed on a filtration plate (Millipore, MABVNOB50) with phosphate buffered saline for six times to remove free radionucleotide. The incorporation of ^33P into ATF2 was quantified on a microplate scintillation counter (Packard Topcount). Compound inhibition potency on JNK was measured by IC50 value generated from ten concentration inhibition curves fitted into the 3-parameter model: % inhibition=Maximum/(1+(IC50/[Inhibitor])^slope). Data were analyzed on Microsoft Excel for parameter estimation.

The next series has as its target Human JNK2α2 (Homo sapiens, UniProt P45984). Described as above. Type of series: biochemical. The following applies: Human JNK2α2, 1 nM enzyme, 1 μM ATF2, 8 μM ATP (Km); read-out: JNK2 - IC50. The procedure: as §1
In the next series the test system is phospho-c-Jun. In words: Phospho-c-Jun translocation assay in TNFα-activated SW1353 cells. Type of series: cell-based. The following applies: Homo sapiens, TNFα 1 ng/ml for 20 min, 30 min compound pre-incubation. The text has this:
Inflammation is regulated in part by the action of c-Jun on other genes in the inflammatory pathway. Thus, inhibition of phosphorylated c-Jun translocation to the nucleus provides an indication of the anti-inflammatory activity of a compound. SW1353 cells were purchased from the American Tissue Culture Collection and maintained in growth media containing DMEM medium (Invitrogen) with 10% fetal bovine serum (Invitrogen), ascorbic acid (Sigma), and penicillin/streptomycin/[…] (Invitrogen) under culture conditions (at 37° C. with 5% CO2). Cells were plated at a density of 8,000 cells/well in 100 μl growth medium 24 h prior to the compound treatment. Immediately before the compound treatment, growth media was replaced with 90 μl of fresh media. Compound stock at 10 mM was first diluted in compound vehicle (DMSO) to 3 mM, then diluted in serum-free medium and added to each well as a 10× concentrated solution in a volume of 10 μl, mixed, and pre-incubated with cells for 30 min at 37° C. in 5% CO2. Compound vehicle (DMSO) was maintained at a final concentration of 1% for all samples. After 30 min incubation, the cells were activated with TNFα (1 ng/ml, Roche Biochem) for 20 min. Cells were then fixed, permeabilized, and stained with anti-phospho-c-Jun antibody (Santa Cruz), followed by Alexa Fluor 488 labeled secondary antibody and Hoechet 33342 dye (Invitrogen) per manufacturer's instructions. The signals of phospho-c-Jun were measured for 400 cells per well by the ArrayScan HCS system (Cellomic). The IC50 values were calculated as the concentration of the compound at which the phospho-c-Jun activity was inhibited to 50% of the control value using the 4-parameter fitting function in the ActivityBase program (IDBS).

Structures are written as SMILES.

Sequence of Human JNK1α1 (P45983 1-384 isoform P45983-2): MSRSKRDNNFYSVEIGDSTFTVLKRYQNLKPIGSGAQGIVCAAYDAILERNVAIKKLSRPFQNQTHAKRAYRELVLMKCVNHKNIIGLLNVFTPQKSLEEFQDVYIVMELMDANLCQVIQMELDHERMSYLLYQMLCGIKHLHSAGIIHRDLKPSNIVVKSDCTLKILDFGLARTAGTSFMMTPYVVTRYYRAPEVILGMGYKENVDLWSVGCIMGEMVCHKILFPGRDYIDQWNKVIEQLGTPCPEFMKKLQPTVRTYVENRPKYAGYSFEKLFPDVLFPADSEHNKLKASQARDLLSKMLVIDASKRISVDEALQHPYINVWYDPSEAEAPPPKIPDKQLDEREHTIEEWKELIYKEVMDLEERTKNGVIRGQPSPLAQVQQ
Sequence of Human JNK2α2 (P45984 whole entry): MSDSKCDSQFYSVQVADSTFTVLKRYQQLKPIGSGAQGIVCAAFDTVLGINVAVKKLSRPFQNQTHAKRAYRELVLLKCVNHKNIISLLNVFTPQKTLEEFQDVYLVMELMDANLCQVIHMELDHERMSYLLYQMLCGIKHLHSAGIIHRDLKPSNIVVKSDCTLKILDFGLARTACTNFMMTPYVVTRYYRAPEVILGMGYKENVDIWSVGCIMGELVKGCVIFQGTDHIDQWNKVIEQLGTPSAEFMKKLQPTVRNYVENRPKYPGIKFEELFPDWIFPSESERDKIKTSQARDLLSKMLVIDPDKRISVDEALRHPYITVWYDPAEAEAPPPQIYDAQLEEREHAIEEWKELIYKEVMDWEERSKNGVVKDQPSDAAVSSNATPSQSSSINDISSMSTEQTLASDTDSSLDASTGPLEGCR

The term IC50 denotes the point on the concentration scale where inhibition reaches its midpoint. One may read the melting point as the temperature of the solid-liquid transition. On to `Cc1n[nH]cc1-c1cccc2c1nnn2-c1ccnc(NC2CCN(S(C)(=O)=O)CC2)n1` [Compound 10, (1-Methanesulfonyl-piperidin-4-yl)-{4-[4-(3-methyl-1H-pyrazol-4-yl)-benzotriazol-1-yl]-pyrimidin-2-yl}-amine], for which the melting point was 231 to 232 °C. For the same compound, on Human JNK1α1, the IC50 came to 0.003 µM. In addition, the half-maximal inhibitory concentration (IC50) on Human JNK2α2 worked out at 0.014 µM. In the series with phospho-c-Jun, this compound registered an IC50 of 2.16 µM.

The record behind these values is US8227478B2, “JNK modulators” (Roche Palo Alto LLC, priority 2008, dated 2012).
